Source: patent US5962417A, “Methods of modulating melanin synthesis” (Trustees of Boston University, priority 1998, dated 1999)

Columns and labels:
[1] = system: TRP 1
Description: (§1) To investigate whether PKC regulates other melanogenic proteins such as tyrosinase related proteins (TPR 1 and TPR 2), melanocytes were treated with 10^-7 M TPA for 2 weeks, a condition known to deplete PKC, and TRP 1 and TRP 2 protein levels were determined using immunoblot analysis with specific antibodies. […] TRP 1 and TRP 2 were immunoprecipitated and incorporation of ^3 H-glycosamine into these proteins was examined.

[2] = molecular target: TRP 2
Description: as §1

[3] = 10^-7 M TPA for 2 weeks (PKC depletion), melanocytes
[4] = TPA for 2 weeks, melanocytes labeled with 3H-glycosamine

**Q.** How did the “effect on TRP 1 protein level” value [1, 3] turn out when CCCCCCCCCCCCCC(=O)O[C@@H]1[C@@H](C)[C@@]2(O)[C@@H](C=C(CO)C[C@]3(O)C(=O)C(C)=C[C@@H]23)[C@@H]2C(C)(C)[C@]12OC(C)=O [TPA, tetraphorbol acetate] was run?
**A.** no effect

**Q.** What about the “effect on glycosylated or non-glycosylated form of TRP 1 (3H-glycosamine labeling)” value [1, 4] of the same compound?
**A.** did not affect

**Q.** What about the “effect on 65 kd non-glycosylated TRP 2 precursor” value [2, 3] of the same compound?
**A.** unaffected

**Q.** And the “reduction of level of glycosylated mature form of TRP 2 (80 kd)” value [2, 3]?
**A.** 50-70%

**Q.** And the “reduction of 3H-glycosamine incorporation into TRP 2” value [2, 4]?
**A.** > 50%
